According to PMC6563031, “Polyketides from the Mangrove-Derived Endophytic Fungus Cladosporium cladosporioides” (Marine Drugs, 2019):
Converted amounts (≈) assume the structure as drawn. Like-named read-outs stand apart in the source and are kept apart here.

How the values were obtained:
[1] = system: F. oxysporum f. sp. cucumerinum QDAU-8; assay: Antimicrobial 96-well microtiter plate assay, F. oxysporum f. sp. cucumerinum; assay type: cell-based, Fusarium oxysporum f. sp. cucumerinum; settings: amphotericin B as positive control
[2] = system: Pseudomonas aeruginosa QDIO-4; assay: Antimicrobial 96-well microtiter plate assay, P. aeruginosa; assay type: cell-based; settings: amphotericin B as positive control (as footnoted)
[3] = system: Glomerella cingulate QDAU-12; assay: Antimicrobial 96-well microtiter plate assay, G. cingulate; assay type: cell-based; settings: amphotericin B as positive control
[4] = system: Bipolaris sorokiniana QDAU-5; assay: Antimicrobial 96-well microtiter plate assay, B. sorokiniana; assay type: cell-based
[5] = system: Escherichia coli EMBLC-1; assay: Antimicrobial 96-well microtiter plate assay, E. coli; assay type: cell-based
[6] = system: Edwardsiella ictarda QDIO-9; assay: Antimicrobial 96-well microtiter plate assay, E. ictarda; assay type: cell-based; settings: chloramphenicol as positive control
[7] = system: Staphylococcus aureus EMBLC-2; assay: Antimicrobial 96-well microtiter plate assay, S. aureus; assay type: cell-based
[8] = system: E. tarda QDIO-2; assay: Antimicrobial 96-well microtiter plate assay, E. tarda; assay type: cell-based, Edwardsiella tarda
[9] = Fusarium oxysporum, read-out: MIC
[10] = Pseudomonas aeruginosa, QDIO4, P. aeruginosa, read-out: MIC
[11] = Bipolaris sorokiniana, QDAU5, amphotericin B as positive control, read-out: MIC
[12] = Escherichia coli, EMBLC1, chloramphenicol as positive control, read-out: MIC
[13] = Edwardsiella, QDIO9, E. ictarda, read-out: MIC
[14] = Staphylococcus aureus, EMBLC2, chloramphenicol as positive control, read-out: MIC
[15] = Edwardsiella tarda, QDIO2, chloramphenicol as positive control, read-out: MIC
[16] = chloramphenicol as positive control

Work on `C[C@@H]1[C@H](O)[C@@H](C)/C=C/C=C/C=C/C=C/C=C/C=C/C=C/[C@H](O[C@@H]2O[C@H](C)[C@@H](O)[C@H](N)[C@@H]2O)C[C@@H]2O[C@](O)(C[C@@H](O)C[C@@H](O)[C@H](O)CC[C@@H](O)C[C@@H](O)CC(=O)O[C@H]1C)C[C@H](O)[C@H]2C(=O)O` [Amphotericin B, reference compound] yielded an MIC [1, 9] of 0.5 µg/mL (≈ 0.541 µM), an MIC [2, 10] of 2 µg/mL (≈ 2.16 µM) and an MIC ([3]; read-out: MIC) of 0.5 µg/mL (≈ 0.541 µM). For the same molecule, the MIC [4, 11] was 0.5 µg/mL (≈ 0.541 µM).
`O=C(N[C@H](CO)[C@H](O)c1ccc([N+](=O)[O-])cc1)C(Cl)Cl` [Chloramphenicol, reference compound] was tested, and the MIC [5, 12] was 2 µg/mL (≈ 6.19 µM), the MIC [6, 13] was 0.5 µg/mL (≈ 1.55 µM) and the MIC [7, 14] was 1 µg/mL (≈ 3.09 µM). The MIC [8, 15] was 0.5 µg/mL (≈ 1.55 µM).
Molecule `CC1CC=CCCC(O)CCCC(=O)O1` (stereo not drawn) [Compound 1, 5R-hydroxyrecifeiolide] has an MIC [1, 9] of over 64 µg/mL, an MIC [5, 12] of over 64 µg/mL and an MIC [2, 10] of 32 µg/mL (≈ 151 µM). The MIC [6, 13] was 32 µg/mL (≈ 151 µM), the MIC [3] was “– ((–) = MIC > 64 μg/mL)” and the MIC [4, 11] was over 64 µg/mL. The MIC [7, 14] was over 64 µg/mL and the MIC [8, 15] was over 64 µg/mL.
For `CC1CC=CCCC(O)CCCC(=O)O1` (stereo not drawn) [Compound 2, 5S-hydroxyrecifeiolide], the MIC [1] was “– ((–) = MIC > 64 μg/mL)”, the MIC [5, 16] was “– ((–) = MIC > 64 μg/mL)” and the MIC ([2]; P. aeruginosa) was “– ((–) = MIC > 64 μg/mL)”. For the same molecule, the MIC ([6]; E. ictarda) was “– ((–) = MIC > 64 μg/mL)”, the MIC [3] was 16 µg/mL (≈ 75.4 µM) and the MIC ([4]; amphotericin B as positive control) was “– ((–) = MIC > 64 μg/mL)”. For the same molecule, the MIC [7, 16] was “– ((–) = MIC > 64 μg/mL)” and the MIC [8, 16] was “– ((–) = MIC > 64 μg/mL)”.
`CC(O)CCCCCCC1OC(=O)CC1O` (stereo not drawn) [Compound 3, ent-cladospolide F] showed an MIC [1, 9] of over 64 µg/mL, an MIC [5, 12] of over 64 µg/mL and an MIC [2, 10] of 64 µg/mL (≈ 278 µM). For the same molecule, the MIC [6, 13] was 16 µg/mL (≈ 69.5 µM), the MIC ([3]; read-out: MIC) was over 64 µg/mL and the MIC [4, 11] was over 64 µg/mL. The MIC [7, 14] was 8 µg/mL (≈ 34.7 µM) and the MIC [8, 15] was over 64 µg/mL.
`CC(=O)OC(C)CCCCCCC1OC(=O)CC1O` (centres unmarked) [Compound 4, cladospolide G] gave an MIC [1, 9] of 1 µg/mL (≈ 3.67 µM), an MIC [5, 12] of 32 µg/mL (≈ 117 µM) and an MIC [2, 10] of over 64 µg/mL. For the same molecule, the MIC [6, 13] was over 64 µg/mL, the MIC ([3]; read-out: MIC) was 1 µg/mL (≈ 3.67 µM) and the MIC [4, 11] was 32 µg/mL (≈ 117 µM). It also gave an MIC [7, 14] of over 64 µg/mL and an MIC [8, 15] of over 64 µg/mL.
Molecule `CC(O)CCCCCC(O)C1C=CC(=O)O1` (centres unmarked) [Compound 6, iso-cladospolide B] has an MIC [1, 9] of over 64 µg/mL, an MIC [5, 12] of 32 µg/mL (≈ 140 µM) and an MIC [2, 10] of over 64 µg/mL. It also gave an MIC [6, 13] of 16 µg/mL (≈ 70.1 µM), an MIC ([3]; read-out: MIC) of 64 µg/mL (≈ 280 µM) and an MIC [4, 11] of over 64 µg/mL. It also gave an MIC [7, 14] of over 64 µg/mL and an MIC [8, 15] of 32 µg/mL (≈ 140 µM).
With `C[C@H]1CCCCC[C@H](O)C(=O)[C@H](O)CC(=O)O1` [Compound 7, pandangolide 1] the MIC [1, 9] was over 64 µg/mL, the MIC [5, 12] was over 64 µg/mL and the MIC [2, 10] was 32 µg/mL (≈ 131 µM). The MIC [6, 13] was 4 µg/mL (≈ 16.4 µM), the MIC ([3]; read-out: MIC) was 1 µg/mL (≈ 4.09 µM) and the MIC [4, 11] was over 64 µg/mL. It also gave an MIC [7, 14] of 32 µg/mL (≈ 131 µM) and an MIC [8, 15] of over 64 µg/mL.
